23 compounds from ChEMBL document CHEMBL1240296, “Pharmacological inhibitors of glycogen synthase kinase 3” (Trends Pharmacol Sci, 2004) can be followed below.

Some results are limits rather than exact numbers.

As usually defined, the IC50 is the concentration that inhibits the measured activity by half. Higher therefore signals weaker potency in that assay. As a reminder, the inhibition is how much of the control response was suppressed.

In the first assay the target is Glycogen synthase kinase-3 alpha (Homo sapiens, UniProt P49840).
Chain of Glycogen synthase kinase-3 alpha (P49840 whole entry): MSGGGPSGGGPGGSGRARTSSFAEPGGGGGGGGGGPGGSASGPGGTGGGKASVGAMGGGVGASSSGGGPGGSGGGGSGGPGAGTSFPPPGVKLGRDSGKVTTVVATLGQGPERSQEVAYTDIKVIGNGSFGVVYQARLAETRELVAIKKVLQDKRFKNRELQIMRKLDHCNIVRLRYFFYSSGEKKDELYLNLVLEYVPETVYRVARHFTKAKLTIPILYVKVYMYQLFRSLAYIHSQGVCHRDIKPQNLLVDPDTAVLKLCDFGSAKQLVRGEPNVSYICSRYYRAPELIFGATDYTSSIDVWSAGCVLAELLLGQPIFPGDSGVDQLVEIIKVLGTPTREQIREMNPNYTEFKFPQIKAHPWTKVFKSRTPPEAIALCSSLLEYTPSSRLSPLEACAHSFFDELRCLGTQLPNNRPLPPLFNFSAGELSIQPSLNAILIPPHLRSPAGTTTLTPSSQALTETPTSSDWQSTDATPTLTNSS
In turn, `Nc1nc(NCCNc2ncc(-c3ncc[nH]3)c(-c3ccc(Cl)cc3Cl)n2)ccc1[N+](=O)[O-]` yielded an IC50 of 0.65 nM.

The target in a further assay is Glycogen synthase kinase-3 beta (Homo sapiens, UniProt P49841).
Chain of Glycogen synthase kinase-3 beta (P49841 whole entry): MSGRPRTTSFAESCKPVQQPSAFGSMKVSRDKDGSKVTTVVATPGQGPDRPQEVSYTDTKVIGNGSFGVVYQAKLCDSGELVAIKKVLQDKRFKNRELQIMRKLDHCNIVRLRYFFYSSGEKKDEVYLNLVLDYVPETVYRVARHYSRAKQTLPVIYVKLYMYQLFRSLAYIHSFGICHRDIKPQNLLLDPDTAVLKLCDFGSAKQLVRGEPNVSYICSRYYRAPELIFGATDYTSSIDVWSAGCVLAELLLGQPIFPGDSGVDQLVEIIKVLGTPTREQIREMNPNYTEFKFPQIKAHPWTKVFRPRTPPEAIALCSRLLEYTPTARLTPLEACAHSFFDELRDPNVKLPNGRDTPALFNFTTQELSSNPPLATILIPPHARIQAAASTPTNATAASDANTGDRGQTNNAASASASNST
`Cn1cc(C2=C(c3cn(CCCSC(=N)N)c4ccccc34)C(=O)NC2=O)c2ccccc21` [BISINDOLYLMALEIMIDE IX]: the IC50 worked out at 3 nM.

Turning to `O=C1NC(=O)C2=C1c1cn(c3ncccc13)CCCC1=CC=C(CCCn3cc2c2cccnc23)S1`, the IC50 is 36 nM.

The compound `COc1cccc(-n2ncc3c(N/N=C/c4ccncc4)ncnc32)c1` [GW784752X] registered an IC50 of 16 nM.

As to `O=C1NC(=O)C2=C1c1cn(c3ncccc13)CCOCCOCCOCCOCCn1cc2c2cccnc21`, the IC50 was found to be 34 nM.

The compound `CN(C)CCCn1cc(C2=C(c3c[nH]c4ccccc34)C(=O)NC2=O)c2ccccc21` [GF-109203] showed an IC50 of 190 nM.

`Nc1cccc(-c2cc3c(Oc4cccc(O)c4)ncnc3[nH]2)c1` showed an IC50 of 30 nM.

System in the next assay: not listed separately
Nature of the assay: Inhibition of GSK3.
`CN1CC[C@H](c2c(O)cc(O)c3c(=O)cc(-c4ccccc4Cl)oc23)[C@H](O)C1` [ALVOCIDIB] came in with an IC50 of 450 nM.

`O=Nc1c(-c2c(O)[nH]c3ccccc23)[nH]c2ccccc12` [INDIRUBIN-3-MONOXIME] registered an IC50 of 5 nM.

`NC1N=Nc2nc3ccccc3nc21` (configuration not stated): the IC50 is 1000 nM.

`CN[C@@H]1C[C@H]2O[C@@](C)([C@@H]1OC)n1c3ccccc3c3c4c(c5c6ccccc6n2c5c31)C(=O)NC4` [STAUROSPORINE] had an IC50 of 15 nM.

`CCCCc1c(-c2ccc(O)cc2)[nH]c2nccnc12` [ALOISINE A] returned an IC50 of 650 nM.

Regarding `COc1ccc2c(c1)/C(=C/c1cnc[nH]1)C(=O)N2` [SU-9516], the IC50 came to 330 nM.

As for `OCCCNc1cc(-c2ccnc(Nc3cccc(Cl)c3)n2)ccn1`, the midpoint of inhibition, the IC50, lay at 10 nM.

Regarding `CC(C)c1c(-c2ccc(Cl)cc2)[nH]c2nccnc12`, the IC50 was determined as 750 nM.

Another assay deals with Glycogen synthase kinase-3 (Homo sapiens, UniProt P49840+P49841). Format: protein assay.
Take `CN1CCN(c2ccc(NCCNc3ccc([N+](=O)[O-])c(N)n3)nc2-c2ccc(Cl)cc2Cl)C(=O)C1`: the IC50 amounted to 4 nM.

A further assay has as its target Cyclin-dependent kinase 1/cyclin B (Homo sapiens, UniProt P06493). Format: protein-complex assay.
In turn, `O=C1NC(=O)C(c2ccccc2[N+](=O)[O-])=C1Nc1ccc(O)c(Cl)c1` came in with an IC50 of 900 nM.

Take `Nc1nc(NCCNc2ncc(-c3ncc[nH]3)c(-c3ccc(Cl)cc3Cl)n2)ccc1[N+](=O)[O-]`: the IC50 stood at 3700 nM.

In the case of `NC1N=Nc2nc3ccccc3nc21` (configuration not stated), the midpoint of inhibition, the IC50, lay at 600 nM.

As for `Cn1cc(C2=C(c3ccc(Cl)cc3Cl)C(=O)NC2=O)c2ccccc21` [SB-216763], the IC50 is 550 nM.

`Ic1cccc(CSc2nnc(-c3ccncc3)o2)c1` came in with an IC50 above 10000 nM.

In turn, `Cn1sc(=O)n(Cc2ccccc2)c1=O` returned an IC50 above 10000 nM.

Compound `CN(C)CCCn1cc(C2=C(c3c[nH]c4ccccc34)C(=O)NC2=O)c2ccccc21` [GF-109203] gave an IC50 of 2300 nM.

Compound `CC(C)c1c(-c2ccc(Cl)cc2)[nH]c2nccnc12` yielded an IC50 of 850 nM.

The target in another assay is Cyclin-dependent kinase 2/cyclin A (Homo sapiens) (UniProt P24941+P20248+P78396). Put plainly: (§1) Inhibition of CDK2/cyclinA at 10 mM. The format is protein-complex assay.
`CN(C)CCC(=O)Nc1n[nH]c2nnc(-c3ccccc3)cc12` gave an inhibition of 90%.

For another assay, the target named is Cyclin-dependent kinase 2/cyclin A (Homo sapiens, UniProt P24941). The assay is described as §1. Format: protein-complex assay.
In turn, `Nc1nonc1-n1nnc(-c2nnc(-c3ccncc3)[nH]2)c1CN1CCCCC1` displayed an IC50 above 250000 nM.

The compound `O=C1NC(=O)C(c2cccc(Cl)c2)=C1Nc1ccc(Cl)c(C(=O)O)c1` gave an IC50 above 10000 nM.
